The text below walks through data of ChEMBL document CHEMBL5104218, “Effects of 6-Aminonicotinic Acid Esters on the Reprogrammed Epigenetic State of Distant Metastatic Pancreatic Carcinoma” (ACS Med Chem Lett, 2022).

Structures are written as SMILES. Calls of active or inactive are those of the source. The rule behind the calls is not given here.

Data set [1] has as its target T1, 6-phosphogluconate dehydrogenase, decarboxylating (Homo sapiens) (UniProt P52209).
T1 sequence (whole entry): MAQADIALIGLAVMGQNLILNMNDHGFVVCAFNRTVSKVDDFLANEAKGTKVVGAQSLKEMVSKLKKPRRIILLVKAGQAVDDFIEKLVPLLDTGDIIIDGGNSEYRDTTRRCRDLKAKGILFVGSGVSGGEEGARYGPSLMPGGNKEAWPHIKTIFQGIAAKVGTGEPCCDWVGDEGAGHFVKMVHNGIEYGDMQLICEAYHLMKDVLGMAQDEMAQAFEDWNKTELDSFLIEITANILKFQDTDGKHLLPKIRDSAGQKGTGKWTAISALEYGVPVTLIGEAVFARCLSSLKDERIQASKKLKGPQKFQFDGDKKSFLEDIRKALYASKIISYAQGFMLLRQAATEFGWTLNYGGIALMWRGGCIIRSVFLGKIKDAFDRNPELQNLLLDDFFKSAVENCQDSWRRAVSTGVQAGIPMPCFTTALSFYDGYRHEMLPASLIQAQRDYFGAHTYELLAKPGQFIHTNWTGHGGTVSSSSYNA
In words: Inhibition of 6PGD in human A38-5 cells assessed as increase in intracellular H3K9me3 level at 0.1 to 1000 uM incubated for 45 mins by HTRF assay. It is filed as cell-based. The conditions noted are these: dose 0.1-1000 µM. (Time-resolved FRET reads energy transfer from a long-lived donor to a nearby acceptor.)

The target in data set [2] is T1, 6-phosphogluconate dehydrogenase, decarboxylating (Homo sapiens). In words: Inhibition of 6PGD in human A38-5 cells assessed as fold increase in intracellular H3K9me3 level at 250 uM incubated for 45 mins by HTRF assay. Type of data set: cell-based.
Data set [3] has the same target. In words: Inhibition of 6PGD in human A38-5 cells assessed as fold increase in 6PG level at 250 uM incubated for 72 hrs by mass spectrometry. Type of data set: cell-based.
Data set [4] deals with Glucose-6-phosphate 1-dehydrogenase (Homo sapiens) (UniProt P11413). In words: Inhibition of G6PD in human A38-5 cells assessed as fold increase in G6P level at 250 uM incubated for 72 hrs by mass spectrometry. It is filed as cell-based.
Sequence of Glucose-6-phosphate 1-dehydrogenase (Homo sapiens) (P11413 whole entry): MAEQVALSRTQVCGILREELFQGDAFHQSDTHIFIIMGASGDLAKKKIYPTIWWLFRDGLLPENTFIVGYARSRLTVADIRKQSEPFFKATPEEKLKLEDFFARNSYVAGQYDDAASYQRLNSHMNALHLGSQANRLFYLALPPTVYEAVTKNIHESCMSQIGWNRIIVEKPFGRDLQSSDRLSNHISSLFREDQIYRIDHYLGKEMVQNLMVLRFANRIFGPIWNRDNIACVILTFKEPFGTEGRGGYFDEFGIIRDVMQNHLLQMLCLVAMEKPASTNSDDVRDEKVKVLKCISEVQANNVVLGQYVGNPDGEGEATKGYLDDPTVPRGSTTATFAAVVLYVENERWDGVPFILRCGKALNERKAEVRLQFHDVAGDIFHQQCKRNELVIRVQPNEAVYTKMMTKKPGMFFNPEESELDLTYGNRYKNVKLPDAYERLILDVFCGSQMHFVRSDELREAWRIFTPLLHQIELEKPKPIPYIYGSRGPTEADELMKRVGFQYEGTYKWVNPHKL
Data set [5] concerns the target T1, 6-phosphogluconate dehydrogenase, decarboxylating (Homo sapiens). Kind of data set: Inhibition of 6PGD in human A38-5 cells assessed as increase in Ru-5-P level at 250 uM incubated for 72 hrs by mass spectrometry. It is filed as cell-based.
The nature of data set [6]: Neurotoxicity against Sprague-Dawley rat Primary hippocampal neuron assessed as increase in TUNEL positive cells at 5 uM incubated for 24 hrs by TUNEL staining based microscopy. It is filed as toxicity, cell-based. As to conditions: hippocampal neurone.
A short description of data set [7]: Neurotoxicity against Sprague-Dawley rat Primary hippocampal neuron assessed as increase in TUNEL positive cells at 50 uM incubated for 24 hrs by TUNEL staining based microscopy. It is filed as toxicity, cell-based. As to conditions: hippocampal neurone.
Data set [8] concerns the target T1, 6-phosphogluconate dehydrogenase, decarboxylating (Homo sapiens). In words: Inhibition of 6PGD in human A38-5 cells assessed as increase in intracellular H3K9me3 level at 1 uM incubated for 45 mins by HTRF assay. Type of data set: cell-based.
For data set [9] the target is unchanged. Kind of data set: Inhibition of 6PGD in human A38-5 cells assessed as increase in intracellular H3K9me3 expression level at 1 to 250 uM incubated for 72 hrs by western blot analysis. Type of data set: cell-based. As to conditions: dose 1-250 µM.
The subject of another data set is A38-5. In words: Cytotoxicity against human A38-5 cells assessed as reduction in cell viability at 0.06 to 250 uM incubated for 72 hrs by CellTiter-Glo assay relative to 6AN. It is filed as functional, cell-based. As to conditions: dose 0.06-250 µM. (Cellular ATP, detected with luciferase, serves as a proxy for viable cell number.)
The target in data set [10] is T1, 6-phosphogluconate dehydrogenase, decarboxylating (Homo sapiens). Kind of data set: Inhibition of 6PGD in human A38-5 cells assessed as fold increase in 6PG level at 15.6 uM incubated for 72 hrs by mass spectrometry. It is filed as cell-based.
The target in data set [11] is Glucose-6-phosphate 1-dehydrogenase (Homo sapiens) (UniProt P11413). In words: Inhibition of G6PD in human A38-5 cells assessed as fold increase in G6P level at 15.6 uM incubated for 72 hrs by mass spectrometry. It is filed as cell-based.
The target of data set [12] is T1, 6-phosphogluconate dehydrogenase, decarboxylating (Homo sapiens). Kind of data set: Inhibition of 6PGD in human A38-5 cells assessed as increase in Ru-5-P level at 15.6 uM incubated for 72 hrs by mass spectrometry. Type of data set: cell-based.
In data set [13] the target is T2, 6-phosphogluconate dehydrogenase, decarboxylating (Rattus norvegicus, UniProt P85968).
T2 sequence (P85968 whole entry): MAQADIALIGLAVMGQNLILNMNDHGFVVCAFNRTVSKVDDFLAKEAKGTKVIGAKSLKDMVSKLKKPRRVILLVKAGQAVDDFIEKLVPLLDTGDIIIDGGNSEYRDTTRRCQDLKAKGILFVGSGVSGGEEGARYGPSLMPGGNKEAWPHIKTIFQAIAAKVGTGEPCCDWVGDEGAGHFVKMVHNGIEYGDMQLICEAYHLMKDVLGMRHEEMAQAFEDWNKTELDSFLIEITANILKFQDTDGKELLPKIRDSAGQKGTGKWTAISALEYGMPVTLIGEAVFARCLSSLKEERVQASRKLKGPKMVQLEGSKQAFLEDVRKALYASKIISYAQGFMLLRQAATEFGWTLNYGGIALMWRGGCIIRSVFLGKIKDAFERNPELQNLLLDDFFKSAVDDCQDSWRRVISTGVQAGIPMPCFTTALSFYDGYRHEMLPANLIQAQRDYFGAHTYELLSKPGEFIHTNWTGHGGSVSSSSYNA
In words: Inhibition of rat 6PGD assessed as inhibition constant by spectrophotometric method.

For data set [14], the target named is T2, 6-phosphogluconate dehydrogenase, decarboxylating. Kind of data set: Inhibition of rat 6PGD by spectrophotometric method.
For data set [15], the target named is Glucose-6-phosphate 1-dehydrogenase (Rattus norvegicus, UniProt P05370). Kind of data set: Inhibition of rat G6PD by spectrophotometric method.
Sequence of Glucose-6-phosphate 1-dehydrogenase (P05370 whole entry): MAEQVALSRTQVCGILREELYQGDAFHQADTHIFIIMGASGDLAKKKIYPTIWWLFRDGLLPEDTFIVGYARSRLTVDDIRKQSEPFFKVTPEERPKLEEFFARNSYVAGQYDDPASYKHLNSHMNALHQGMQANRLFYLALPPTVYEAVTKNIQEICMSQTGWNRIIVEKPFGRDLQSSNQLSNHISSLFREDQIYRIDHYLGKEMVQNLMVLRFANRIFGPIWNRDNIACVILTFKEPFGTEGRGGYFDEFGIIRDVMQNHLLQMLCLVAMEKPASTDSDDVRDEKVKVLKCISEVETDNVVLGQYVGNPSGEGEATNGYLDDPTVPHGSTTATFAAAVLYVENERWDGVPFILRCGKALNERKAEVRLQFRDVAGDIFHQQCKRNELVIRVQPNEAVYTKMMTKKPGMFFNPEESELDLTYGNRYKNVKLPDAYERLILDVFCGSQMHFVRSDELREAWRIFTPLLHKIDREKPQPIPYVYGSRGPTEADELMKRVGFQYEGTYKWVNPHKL
Another data set addresses T3, Glutathione reductase (Rattus norvegicus, UniProt P70619).
T3 sequence (P70619 whole entry): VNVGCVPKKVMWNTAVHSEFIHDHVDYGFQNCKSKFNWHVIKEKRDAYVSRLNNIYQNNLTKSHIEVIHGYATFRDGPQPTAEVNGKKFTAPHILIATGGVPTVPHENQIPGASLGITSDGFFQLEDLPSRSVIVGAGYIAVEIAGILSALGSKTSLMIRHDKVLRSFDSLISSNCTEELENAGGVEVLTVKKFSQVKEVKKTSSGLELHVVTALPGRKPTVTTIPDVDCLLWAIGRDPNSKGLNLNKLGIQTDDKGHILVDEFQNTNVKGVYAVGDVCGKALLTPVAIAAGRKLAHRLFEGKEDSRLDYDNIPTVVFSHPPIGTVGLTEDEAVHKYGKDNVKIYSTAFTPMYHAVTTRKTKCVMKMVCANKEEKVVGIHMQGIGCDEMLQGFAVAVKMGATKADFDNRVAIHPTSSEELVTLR
In words: Inhibition of rat glutathione reductase by spectrophotometric method.

As for `NC(=O)c1ccc(N)nc1` [6-AMINONICOTINAMIDE], the “activity outcome (qualitative)” value in [1] (DDE = dose-dependent effect) was “Dde”. For the same compound, the fold change (FC) in data set [2] was 2.5; in data set [3] it was 150; in [4], 2. For the same compound, the inhibition entry in data set [5] is “Active”. The Activity result in data set [6] and in data set [7] was “Toxic” in each case.

Take `CC(OC(=O)OC1CCCCC1)OC(=O)c1ccc(N)nc1` (stereo not given): the “activity outcome (qualitative)” value in [1] (DDE = dose-dependent effect) is “Dde”. The inhibition result in data set [8], in data set [9] and in data set [12] was “Active” each time. Moreover, the outcome with A38-5 was Active. The fold change (FC) in data set [10] stood at 150; in [11], 2. Further, the Activity result in [6] and in [7] was “Non-Toxic” throughout.

For `CC(=O)OCOC(=O)c1ccc(N)nc1`, the “activity outcome (qualitative)” value in data set [1] was “Active”.

As for `CCCC(=O)OCOC(=O)c1ccc(N)nc1`, the “activity outcome (qualitative)” value in [1] was “Active”.

Consider `CC(C)C(=O)OCOC(=O)c1ccc(N)nc1`, for which the “activity outcome (qualitative)” value in [1] is “Active”.

Take `CCOC(=O)OC(C)OC(=O)c1ccc(N)nc1` (stereo not given): in [1] (DDE = dose-dependent effect), the “activity outcome (qualitative)” value was “Dde”.

For the compound `CCOC(=O)OCOC(=O)c1ccc(N)nc1`, the “activity outcome (qualitative)” value in data set [1] (DDE = dose-dependent effect) is “Dde”.

The Ki is a dissociation constant, usually derived from enzyme kinetics or from competition with a known ligand. What is called IC50 is the midpoint of a concentration-inhibition curve. Read a low IC50 as greater potency. Regarding `NC(=O)c1ccc(N)[n+]([C@@H]2O[C@H](COP(=O)(O)OP(=O)(O)OC[C@H]3O[C@@H](n4cnc5c(N)ncnc54)[C@H](OP(=O)(O)O)[C@@H]3O)[C@@H](O)[C@H]2O)c1`, in data set [13], the Ki came to 0.1 µM. Besides, the IC50 came out at 0.2 µM in data set [14], 70 µM in [15] and 46 µM against Glutathione reductase.
